Experimental data published in EPA's CvTdb concentration-time database.

Assays:
Experiment in all cases: concentration in plasma after dosing
Rat [1] = conditions: 5 h; dosed: Formamide; 10 mg/kg; iv; Male; F344
Rat [2] = conditions: dosed: Formamide, 10 mg/kg, iv, Male, F344
Rat [3] = conditions: dosed: Formamide, 10 mg/kg, iv, Male, F344; remark: listed apart in the source
Rat [4] = conditions: 5 h; dosed: Formamide; 10 mg/kg; iv; Male; F344; remark: listed apart in the source
Rat [5] = conditions: dosed: Formamide, 30 mg/kg, iv, Female, F344
Rat [6] = conditions: 3 h; dosed: Formamide; 10 mg/kg; iv; Male; F344
Rat [7] = conditions: dosed: Formamide, 30 mg/kg, iv, Female, F344; remark: listed apart in the source
Rat [8] = conditions: dosed: Formamide, 10 mg/kg, iv, Male, F344; remark: listed apart in the source
Rat [9] = conditions: dosed: Formamide, 30 mg/kg, iv, Female, F344; remark: listed apart in the source
Rat [10] = conditions: dosed: Formamide, 10 mg/kg, iv, Male, F344; remark: listed apart in the source
Rat [11] = conditions: dosed: Formamide, 10 mg/kg, iv, Female, Harlan Sprague-Dawley
Rat [12] = conditions: 2 h; dosed: Formamide; 10 mg/kg; iv; Male; F344
Rat [13] = conditions: dosed: Formamide, 10 mg/kg, iv, Male, F344; remark: listed apart in the source
Rat [14] = conditions: dosed: Formamide, 10 mg/kg, iv, Male, F344; remark: listed apart in the source
Rat [15] = conditions: 5 h; dosed: Formamide; 10 mg/kg; iv; Male; F344; remark: listed apart in the source
Rat [16] = conditions: dosed: Formamide, 10 mg/kg, iv, Female, Harlan Sprague-Dawley; remark: listed apart in the source
Rat [17] = conditions: dosed: Formamide, 30 mg/kg, iv, Female, F344; remark: listed apart in the source
Rat [18] = conditions: dosed: Formamide, 10 mg/kg, iv, Male, F344; remark: listed apart in the source
Rat [19] = conditions: dosed: Formamide, 10 mg/kg, iv, Male, F344; remark: listed apart in the source
Rat [20] = conditions: dosed: Formamide, 10 mg/kg, iv, Male, F344; remark: listed apart in the source
Rat [21] = conditions: dosed: Formamide, 10 mg/kg, iv, Male, F344; remark: listed apart in the source
Rat [22] = conditions: 0.5 h; dosed: Formamide; 10 mg/kg; iv; Female; Harlan Sprague-Dawley
Rat [23] = conditions: dosed: Formamide, 10 mg/kg, iv, Male, F344; remark: listed apart in the source
Rat [24] = conditions: 2 h; dosed: Formamide; 10 mg/kg; iv; Male; F344; remark: listed apart in the source
Rat [25] = conditions: dosed: Formamide, 10 mg/kg, iv, Female, F344
Rat [26] = conditions: 2 h; dosed: Formamide; 10 mg/kg; iv; Male; F344; remark: listed apart in the source
Rat [27] = conditions: 0.5 h; dosed: Formamide; 10 mg/kg; iv; Male; F344
Rat [28] = conditions: dosed: Formamide, 10 mg/kg, iv, Male, F344; remark: listed apart in the source
Rat [29] = conditions: dosed: Formamide, 10 mg/kg, iv, Male, F344; remark: listed apart in the source
Rat [30] = conditions: 0.5 h; dosed: Formamide; 10 mg/kg; iv; Female; Harlan Sprague-Dawley; remark: listed apart in the source

Structure (SMILES): NC=O [Formamide]
- concentration in plasma (Rat [1]): 10500 ng/mL
- concentration in plasma (Rat [2]; 1 h): 12700 ng/mL
- concentration in plasma (Rat [2]; 3 h): 12800 ng/mL
- concentration in plasma (Rat [3]; 5 min): 12900 ng/mL
- concentration in plasma (Rat [3]; 36 h): 2200 ng/mL
- concentration in plasma (Rat [4]): 13400 ng/mL
- concentration in plasma (Rat [5]; 0.5 h): 44700 ng/mL
- concentration in plasma (Rat [5]; 48 h): 1600 ng/mL
- concentration in plasma (Rat [6]): 12000 ng/mL
- concentration in plasma (Rat [7]; 0.25 h): 17600 ng/mL
- concentration in plasma (Rat [7]; 24 h): 7700 ng/mL
- concentration in plasma (Rat [8]; 0.25 h): 13300 ng/mL
- concentration in plasma (Rat [8]; 24 h): 3900 ng/mL
- concentration in plasma (Rat [9]; 5 min): 39500 ng/mL
- concentration in plasma (Rat [9]; 36 h): 3400 ng/mL
- concentration in plasma (Rat [10]; 5 min): 13700 ng/mL
- concentration in plasma (Rat [10]; 36 h): 3100 ng/mL
- concentration in plasma (Rat [11]; 0.25 h): 14700 ng/mL
- concentration in plasma (Rat [11]; 24 h): 2900 ng/mL
- concentration in plasma (Rat [12]): 12400 ng/mL
- concentration in plasma (Rat [13]; 5 min): 11900 ng/mL
- concentration in plasma (Rat [13]; 36 h): 2000 ng/mL
- concentration in plasma (Rat [14]; 0.25 h): 6900 ng/mL
- concentration in plasma (Rat [14]; 24 h): 2900 ng/mL
- concentration in plasma (Rat [15]): 9600 ng/mL
- concentration in plasma (Rat [16]; 0.25 h): 13000 ng/mL
- concentration in plasma (Rat [16]; 24 h): 2100 ng/mL
- concentration in plasma (Rat [17]; 8 h): 26800 ng/mL
- concentration in plasma (Rat [17]; 12 h): 22600 ng/mL
- concentration in plasma (Rat [18]; 1 h): 13400 ng/mL
- concentration in plasma (Rat [18]; 3 h): 11700 ng/mL
- concentration in plasma (Rat [19]; 8 h): 7100 ng/mL
- concentration in plasma (Rat [19]; 12 h): 5600 ng/mL
- concentration in plasma (Rat [20]; 8 h): 8000 ng/mL
- concentration in plasma (Rat [20]; 12 h): 6700 ng/mL
- concentration in plasma (Rat [21]; 10 min): 10700 ng/mL
- concentration in plasma (Rat [21]; 18 h): 2900 ng/mL
- concentration in plasma (Rat [22]): 13500 ng/mL
- concentration in plasma (Rat [23]; 5 min): 11200 ng/mL
- concentration in plasma (Rat [23]; 36 h): 1400 ng/mL
- concentration in plasma (Rat [24]): 14100 ng/mL
- concentration in plasma (Rat [25]; 10 min): 12500 ng/mL
- concentration in plasma (Rat [25]; 18 h): 3300 ng/mL
- concentration in plasma (Rat [26]): 12600 ng/mL
- concentration in plasma (Rat [27]): 13400 ng/mL
- concentration in plasma (Rat [28]; 8 h): 9200 ng/mL
- concentration in plasma (Rat [28]; 12 h): 6700 ng/mL
- concentration in plasma (Rat [29]; 1 h): 14500 ng/mL
- concentration in plasma (Rat [29]; 3 h): 12400 ng/mL
- concentration in plasma (Rat [30]): 11100 ng/mL
